The text below walks through data of patent US9763911B2, “Prostacyclin compositions for regulation of fracture repair and bone formation” (MAYO FOUNDATION FOR MEDICAL EDUCATION AND RESEARCH, priority 2013, dated 2017).

For assay [1], the system named is β-catenin in KO OC clone 8 cells. Description: Activated β-catenin protein in Sost KO clonal osteocytes treated with Wnt inhibitor (immunoblot). It is filed as cell-based, mouse. As to conditions: KO OC 8 cells, treatment for 48 hours, vs vehicle, P<0.05 (FIG. 7A). The protocol:
(§1) FIGS. 7A and 7B show inhibition of Wnt secretion with C-59 reduces intra-cellular activated β-catenin concentrations and 6-keto PGF1α concentrations. […] KO OC clone 8 cells were treated with a Wnt inhibitor, C-59 (2-(4-(2-methylpyridin-4-yl)phenyl)-N-(4(pyridine-3-yl)phenyl)acetamide) to assess the functional importance of β-catenin signaling in sclerostin-mediated increases in PGI2 synthesis.
Wells in a 6-well collagen treated plate were seeded with 0.2×10^6 sclerostin knock-out osteocytes (Clone KO8). After 48 hours, normal growth medium was removed, and cells were rinsed with PBS. Serum-free media was then added (α-MEM, 1% P/S) to the osteocytes as was well as either 100 nM of the small molecule Wnt inhibitor, C59 (2-(4-(2-methylpyridin-4-yl)phenyl)-N-(4-(pyridine-3-yl)phenyl) acetamide), or a vehicle control. After a 48 hour incubation, media was harvested from both vehicle and experimental wells and assayed for 6-keto prostaglandin F1α.
Cell lysates from 6- or 12-well plates were prepared by scraping cells in lysis buffer (0.1% SDS, 150 mM NaCl, 2 mM sodium vanadate, 0.5% sodium deoxycholate, 1% NP-40 50 mM Tris pH 8.2, 1 mM EDTA with one mini-complete protease inhibitor cocktail EDTA-free tab (Roche Diagnostics, Indianapolis, Ind.)) per 7 ml lysis solution or by direct addition of 1×SDS sample containing 5 mM EDTA and protease inhibitor as above. […]
In general terms: A western blot detects proteins with antibodies after separation by electrophoresis.

Assay [2] has as its system 6-keto PGF1α (PGI2 synthesis) in KO OC clone 8 cells. As to the kind of experiment: 6-keto PGF1α in culture medium of treated Sost KO clonal osteocytes (EIA). It is filed as cell-based, mouse. To be noted: 100 nM C59, 48 h, vehicle 274.964±6.006 pg/mL, P=0.012 (FIG. 7B). The protocol:
as §1
All prostaglandin metabolite measurements were performed by enzyme immunoassay (EIA) using kits from Cayman Chemical (Ann Arbor, Mich.). 6-Keto prostaglandin Flα (Catalog Number 515211), prostaglandin E2 (Catalog Number 514010), Prostaglandin E Metabolite (Catalog Number 514531), prostaglandin F2α (Catalog Number 516011), prostaglandin D2 (Catalog Number 512031), and thromboxane B2 (Catalog Number 519031) were all performed according to kit instructions. Culture medium was diluted 1:2 in supplied buffer for each metabolite measurement, solubilized bone proteins were diluted 1:100 in supplied buffer for each metabolite measurement, and urine was diluted 1:500 in supplied buffer for each metabolite measurement.
Wells in a 6-well collagen treated plate were seeded with 0.2×10^6 sclerostin knock-out osteocytes (Clone KO8). After 48 hours, normal growth medium was removed, and cells were rinsed with PBS. […]

With `Cc1cc(-c2ccc(CC(=O)Nc3ccc(-c4cccnc4)cc3)cc2)ccn1` [C59, 2-(4-(2-methylpyridin-4-yl)phenyl)-N-(4(pyridine-3-yl)phenyl)acetamide], in assay [1], the “β-catenin protein concentration in cells” value is reported as “statistically significant decrease”. The “6-keto PGF1α in culture medium” value in assay [2] is 536.409 ± 60.690 pg/mL.
